Patent publication US20230355810A1, “Semifluorocarbon Compound Containing Contrast Agent” (B. Braun Melsungen AG, priority 2013, published 2023)
Values belong to the compound of their own block, whether it stands above or below them.

What was measured:
[1] = Miscibility / solubility of the fluorinated compound in the oil (MCT, PFOB); type: physicochemical
Experimental: The emulsion of the invention comprises the semifluorinated compound and preferably the mid-chain triglyceride (MCT). According to one aspect of the invention the oil components of the emulsion form a homogeneous solution at 20° C. […] The oil phase may comprise further oil components such as long chain fatty acid triglycerides based on vegetable oil or marine oils such as fish oil. The amount of the further oil components is preferable adjusted that a completely miscible oil phase is maintained. Generally, the amount of oil components which are different from the semifluorinated compound and triglyceride b) which is preferably the MCT, are less than 50 weight percent (wt.-%), preferably less than 40 wt.-%, more preferably less than 30 wt.-%, further preferably less than 20 wt.-%, especially less than 10 wt.-%, in particular less than 5 wt.-% or essentially free, wherein the amount is based on the total weight of the oil components.
Perfluoroctylbromide (PFOB) is a known contrast agent for the magnetic resonance spectroscopy.

[2] = Density measurement of mixtures of MCT and F6H8; type: physicochemical; conditions: based on the total weight of the oil phase, FIG. 1C
Description: By adapting the density of the oil phase to the density of the aqueous phase coalescence phenomena of the droplets as well as sedimentation phenomena, which destabilize the emulsion, can be decreased.
At about 38.5 wt.-% of F6H8 and about 61.5 wt.-% of MCT, (weight based on the total weight of the oil phase) the density of the oil mixture corresponds to the density of the aqueous phase.

solubility in MCT [1]: cannot be dissolved in MCT
SMILES: FC(F)(F)C(F)(F)C(F)(F)C(F)(F)C(F)(F)C(F)(F)C(F)(F)C(F)(F)Br [PFOB, Perfluoroctylbromide]

solubility in PFOB [1]: can be dissolved in PFOB
SMILES: FC(F)(F)C(F)(F)C(F)(F)C(F)(F)C(F)(F)C(F)(F)C(F)(F)C(F)(F)C(F)(F)C(F)(F)Br [PFDB, perfluorodecylbromide]

miscibility with MCT ([1]; 20° C.): miscible at 20 °C
share of F6H8 in the oil phase (rest MCT, about 61.5 wt.-%) at which the density of the oil mixture corresponds to the density of the aqueous phase [2]: about 38.5 wt.-%
SMILES: CCCCCCCCC(F)(F)C(F)(F)C(F)(F)C(F)(F)C(F)(F)C(F)(F)F [Example F6H8, perfluorohexyloctane]
